Results: PMC7566095 (iScience, 2020)
Bridge positions count the residues as written; N and C are the ends. Ends that are not written are not given here.

How the values were obtained:
Parameters in all cases: species or system HIV
[1] = molecular target: mAb 257D binding to SF162 gp120 protein; test: Competition peptide ELISA, mAb 257D
[2] = system: mAb F240 binding to MN gp41 protein; test: Competition peptide ELISA, mAb F240; conditions: peptide 4-fold serial dilutions beginning at 20 ug/mL
[3] = system: mAb 240D binding to MN gp41 protein; test: Competition peptide ELISA, mAb 240D; conditions: peptide 4-fold serial dilutions beginning at 20 ug/mL
[4] = system: mAb 447-52D binding to SF162 gp120 protein; test: Competition peptide ELISA, mAb 447-52D; conditions: for competition of peptide for binding of mAb 447-52D to gp120 protein: peptide 4-fold serial dilutions beginning at 20 ug/mL
[5] = competition ELISA, SF162 gp120 coated, unpaired t test, three replicate experiments
[6] = competition ELISA, SF162 gp120 coated

Sequence: EKSIHIGPGRAFY [R304E]
- IC50 of peptide compared with wild-type V3 peptide, mAb 257D [1, 5]: did not yield IC50 values that were significantly different from the wild-type peptide

Sequence: LLGIWGCSGKLICTTNVP (disulfide 7-13 (inferred)) [wild-type gp41 peptide]
- competition of peptide for binding of mAb F240 to gp41 protein [2]: competed for binding
- competition of peptide for binding of mAb 240D to gp41 protein [3]: competed for binding

Sequence: LLGIWGDSGKLICTTNVP [C598D]
- competition of peptide for binding of mAb F240 to gp41 protein [2]: no longer competes for binding
- competition of peptide for binding of mAb 240D to gp41 protein [3]: no longer competes for binding

Sequence: RKSIHIGPGRAFY [wild-type V3 peptide]
- competition of peptide for binding of mAb 447-52D to gp120 protein [4]: competed for binding
- competition of peptide for binding of mAb 257D to gp120 protein ([1]; peptide 4-fold serial dilutions beginning at 20 ug/mL): competed for binding

Sequence: RKSIHIGPGRATY [F317T]
- competition of peptide for binding of mAb 447-52D to gp120 protein [4]: improved binding above wild-type levels

Sequence: RKSIHIGPGWAFY [R315W]
- fold increase in IC50 versus wild-type V3 peptide, mAb 447-52D [4, 6]: 72 fold
- fold increase in IC50 versus wild-type V3 peptide, mAb 257D [1, 6]: 5 fold

Sequence: RTSIHIGPGRAFY [K305T]
- IC50 of peptide compared with wild-type V3 peptide, mAb 447-52D [4, 5]: did not yield IC50 values that were significantly different from the wild-type peptide
